Data: patent publication US4761478A, “3-deazaguanine sulfonic acid salts” (Warner-Lambert Company, priority 1986, dated 1988)
Entries after “also recorded” stand apart in the source; their conditions may differ. Counter-ions that a name gives are not always drawn. Like-named read-outs stand apart in the source and are kept apart here.

What was measured:
[1] = trimetrexate acid addition salts in water; data from U.S. Pat. No. 4,376,858; cited from earlier work
[2] = Water solubility of 3-deazaguanine and its acid addition salts (Table I); format: physicochemical; details: for Solubility: 3-deazaguanine salts in water; for ml Water Needed to Dissolve / water solubility (in words): 3-deazaguanine salts; for ml Water Needed to Dissolve: 250 mg 3-deazaguanine plus one equivalent weight of the acid, water added until complete solution
Description: The common acids employed for the formulation of acid addition salts of pharmaceutical bases are listed in J. Pharm. […] The solubility values presented in Table I were determined as follows: 3-deazaguanine (250 mg) was suspended in a small volume of water and one equivalent weight of the acid was added with stirring. Stirring was continued and small volumes of water were added intermittently until complet solution was obtained.

[3] = Chemical stability of the sodium salt of 3-deazaguanine in aqueous solution; format: physicochemical; details: aqueous solution of sodium salt of 3-deazaguanine
[4] = Aqueous solution of 3-deazaguanine methanesulfonate salt remaining clear and free of precipitate; format: physicochemical; details: in water
Description: To a slurry of 24.5 g of 6-amino-1,5-dihydro-4H-imidazo-[4,5-c]pyridin-4-one (3-deazaguanine) in 250 ml of methyl alcohol was added a solution of 17.0 g of methanesulfonic acid in 50 ml of methyl alcohol. The mixture was stirred at room temperature for about 10 minutes, filtered, and the filter cake washed with methyl alcohol to give, after drying, 35.5 g (88%) of 3-deazaguanine methanesulfonate salt, mp 273°-275° C. This material produced a solution in water at a concentration of 41 mg/ml which remained clear and free of any precipitate for more than three days.

[5] = Relative solubility of m-AMSA acid addition salts (Table III); format: physicochemical
[6] = Solubility of trimetrexate acid addition salts in water (Table II); format: physicochemical; details: decreasing order of solubility

Compound | Solubility [1] [µg/mL] | Solubility [2] [µg/mL] | ml Water Needed to Dissolve [2] [mL] | also measured
COc1cc(NCc2ccc3nc(N)nc(N)c3c2C)cc(OC)c1OC [2-Naphthalenesulfonic] | 150 |  |  | 
Nc1cc2nc[nH]c2c(=O)[nH]1 [Maleic] |  | 1600 to 1700 | 150 to 160 | 
Nc1cc2nc[nH]c2c(=O)[nH]1 [sodium salt] |  |  |  | chemical stability in aqueous solution (in words) [3]: tend to begin to degrade within a few hours of formulation; also recorded: chemically unstable
Nc1cc2nc[nH]c2c(=O)[nH]1 [H3 PO4] |  | 1900 to 2100 | 120 to 130 | 
Nc1cc2nc[nH]c2c(=O)[nH]1 [HCl] |  | 3300 to 3800 | 65 to 75 | 
CS(=O)(=O)O.Nc1cc2nc[nH]c2c(=O)[nH]1 [Methanesulfonic, 3-deazaguanine methanesulfonate salt] | 9830 |  | 5 | time the solution remained clear and free of any precipitate ([4]; 41 mg/ml): more than three; Solubility ([4]; read-out: concentration of solution produced in water): 41000 µg/mL; solubility compared with other m-AMSA salts (in words) [5]: one of the least soluble salts; order of solubility among the trimetrexate salts tested [6]: sixth; water solubility (in words) ([2]; water): solubility advantage; Solubility ([2]; water, read-out: Solubility): 50000 µg/mL
COc1cc(NCc2ccc3nc(N)nc(N)c3c2C)cc(OC)c1OC [p-Toluenesulfonic] | 1730 |  |  | 
COc1cc(NCc2ccc3nc(N)nc(N)c3c2C)cc(OC)c1OC [Ethoxyacetic] | 19500 |  |  | 
Nc1cc2nc[nH]c2c(=O)[nH]1 [H2 SO4] |  | 800 to 1000 | 250 to 300 | water solubility (in words) ([2]; water, listed as sulfate): poorly soluble; water solubility (in words) ([2]; water, listed as sulfate salt): lower solubility; solubility relative to the corresponding free base ([2]; sulfate salt of 3-deazaguanine vs free base): about one-half
